Measured values published in patent US20240279603A1, “METHODS OF PROCESSING ADULT NEURAL CELLS FROM MAMMALS AND ASSAYS THEREOF” (THE TEXAS A&M UNIVERSITY SYSTEM, priority 2021, published 2024).

Tested on: primary cortical neurons
Assay: Analysis of neurite outgrowth and survival of cultured adult cortical neurons (TUBB3/DAPI high-content imaging)
Type: cell-based, mouse
Settings: for average neurite length vs Vehicle / number of valid neurons vs Vehicle / total neurite outgrowth vs Vehicle: 150 nM 7-epi Paclitaxel; for average neurite length vs Vehicle / number of valid neurons vs Vehicle / total neurite outgrowth vs Vehicle / overall screening result: 3DIV; for overall screening result: 7-epi Paclitaxel
Experimental: The instant example provides an exemplary protocol, method, and application of processing and screening using adult cortical neurons obtained from adult mice. In particular, the instant example used young adult and middle-aged male and female wild-type C57Bl/6 mice in which the young adult group comprised mice of 4-9 weeks of age and the middle-age group comprised mice of 40-48 weeks of age.
Approximately 20 μL of 50 μg/mL Poly-D-Lysine (PDL, Sigma Aldrich, A-003-M) was added onto the wells of 384-well glass bottom (Brooks Life Sciences, MGB101-1-2-LG-L) or plastic bottom (Greiner-Bio, 781091) plates and incubated inside a 5% CO2 incubator at 37° C. for 48 hours. After incubation, the wells of the plates were washed 5 times with H2O and set to dry overnight at room temperature and were used within 24 hours after drying.
Mice were euthanized and their brains were extracted and placed in cold Hank's balanced salt solution (HBSS) followed by microdissection of the cortex. Up to 1.25 grams of cortical tissue were placed in gentleMACS™ C tubes (Miltenyi Biotec, #130-093-237), where each tube contained 5 mL of 0.3 mg/mL papain (Worthington, LS003126) diluted in HBSS.
The gentleMACS™ C tubes were placed on the gentleMACS™ Octo Dissociator with heaters (Miltenyi Biotec, #130-096-427) with heating cuffs attached and underwent the gentleMACS Program 37C_ABDK_01 protocol. After protocol completion, the contents of the gentleMACS™ C Tube were strained through a 70 μm cell strainer (Miltenyi Biotec, #130-110-916) placed on top of a 15 mL conical centrifuge tube. Then, 7 mL of cold Dulbecco's Phosphate-Buffered Saline with glucose and pyruvate (DPBS, Thermo Fisher Scientific, 14287072) was added into each of the 15 mL conical centrifuge tubes on top of the strained cells. The 15 mL tubes were centrifuged at 300×g for 10 minutes at 4° C. before aspirating the supernatant completely.
Debris removal solution was made by adding 1800 μL of Debris Removal Concentrate (Miltenyi Biotec, #130-109-398) to 6200 μL of cold DPBS. The remaining pellet inside the 15 mL tubes was resuspended with 8 mL of Debris Removal Solution. Very slowly, 4 mL of cold DPBS was dispensed on top of the debris removal solution and cell mixture in each 15 mL tube forming a clear layer on top. The 15 mL tubes were centrifuged at 3000×g for 10 minutes at 4° C. with slow acceleration and deceleration. The top clear and middle debris layers were aspirated leaving the milky mixture beneath the debris layer untouched. 6 mL of DPBS was added onto the milky mixture and mixed gently before centrifuging at 300×g for 5 minutes at 4° C. All supernatant was aspirated afterwards.
Red Blood Cell Remover Solution was made by mixing 125 μL of Red Blood Cell Lysis Solution 10× (Miltenyi Biotec, #130-094-183) with 1125 μL of H2O. The remaining pellet was resuspended in 1.25 mL of Red Blood Cell Remover Solution and incubated for 10 minutes at 4° C. before the addition of 12 mL of 0.5% bovine serum albumin (BSA, Miltenyi Biotec, #130-091-376) diluted in DPBS. The mixture was centrifuged at 300×g for 5 minutes at 4° C. with the supernatant aspirated completely afterwards. The remaining pellet was resuspended in 80 μL of 0.5% BSA and 20 μL of Non-Neuronal Cells Biotin-Antibody Cocktail (Miltenyi Biotec, #130-115-389) and incubated for 5 minutes at 4° C. Cells were washed by adding 2 mL of 0.5% BSA followed by centrifugation at 300×g for 5 minutes at 4° C. followed by aspiration of the supernatant. The remaining pellet was resuspended in 80 μL of 0.5% BSA and 20 μL of Anti-Biotin MicroBeads (Miltenyi Biotec, #130-115-389) and incubated for 10 minutes at 4° C.
After the addition of 6 mL 0.5% BSA, the mixture was flowed through 0.5% BSA primed LS columns (Miltenyi Biotec, #130-042-401). The negative fraction containing the majority of neurons was collected and centrifuged at 300×g for 5 minutes at 4° C. and resuspended in neuron media. […]

[1] = young adult male mice, 2DIV, relative to 0% DMSO
[2] = young adult male mice, 2DIV, PDL coated wells, laminin coating 10 μg/mL
[3] = 5 μM (S)-H-1152 vs Vehicle (0.05% DMSO), young adult male mice, 2DIV, 10,000 cells plated per well, two-way ANOVA

C[S+](C)[O-] [DMSO, Dimethyl sulfoxide]
correlation between average neurite length and % DMSO in the media (linear regression) [1]: significant negative correlation | correlation between number of valid neurons per well and % DMSO in the media (linear regression) [1]: significant negative correlation | correlation between total neurite outgrowth and % DMSO in the media (linear regression) [1]: significant negative correlation

laminin
average neurite length, change relative to the control group (no B27+ supplement or laminin coating) [2]: did not induce a significant changes | number of valid neurons, change relative to the control group (no B27+ supplement or laminin coating) [2]: did not induce a significant changes | total neurite outgrowth, change relative to the control group (no B27+ supplement or laminin coating) [2]: did not induce a significant changes

CC(=O)O[C@H]1C(=O)[C@]2(C)[C@H](O)C[C@H]3OC[C@@]3(OC(C)=O)[C@H]2[C@H](OC(=O)c2ccccc2)[C@]2(O)C[C@H](OC(=O)[C@H](O)[C@@H](NC(=O)c3ccccc3)c3ccccc3)C(C)=C1C2(C)C [7-epi Paclitaxel]
average neurite length vs Vehicle (middle-aged male cohort): significantly increased | number of valid neurons vs Vehicle (middle-aged male cohort): without affecting | total neurite outgrowth vs Vehicle (middle-aged male cohort): without affecting | average neurite length vs Vehicle (young adult female cohort): significantly increased | number of valid neurons vs Vehicle (young adult female cohort): significantly decreased | total neurite outgrowth vs Vehicle (young adult female cohort): significantly decreased | average neurite length vs Vehicle (young adult male cohort): significantly increased | number of valid neurons vs Vehicle (young adult male cohort): significantly decreased | total neurite outgrowth vs Vehicle (young adult male cohort): significantly decreased | overall screening result (middle-aged male neurons): overall positive result | overall screening result (young adult neurons): overall negative result

Cc1cncc2cccc(S(=O)(=O)N3CCCNC[C@@H]3C)c12 [(S)-H-1152]
average neurite length [3]: significantly increased | number of valid neurons [3]: significantly increased | slope of the total neurite outgrowth linear regression line against cell plating density (5 μM (S)-H-1152 vs Vehicle, young adult male mice, 2DIV, 1,500-15,000 cells per well): steeper increase
